Results published in article PMC6278385, “Preclinical Pharmacokinetics of C118P, a Novel Prodrug of Microtubules Inhibitor and Its Metabolite C118 in Mice, Rats, and Dogs” (Molecules, 2018).
Read-outs that look alike come from different tables or passages of the source. One block for each compound: values may come before it.

How the values were obtained:
[1] = Tandem two-compartment PK model of C118P and C118; assay type: in vivo; settings: dog; for K12 / K21 / V1: two-compartmental model parameter (Table S1); for K10: two-compartmental model, K10 supposed to be transformation rate of C118P into C118, simulated
Description: Due to the rapid transformation of C118P into C118, there is no direct way to calculate the rate of transformation, thus a two-compartment model with metabolism involved was developed (Figure S3). The transformation rate from C118P into C118 was simulated by fitting the two-serial data of prodrug C118P and C118 in rats and dogs.
3. The pharmacokinetic profile of C118P and C118 was simulated by two compartmental models. To simplify the model, the excretion rate of C118P from central compartment was supposed to be zero. In this model, both C118P and C118 were described by two-compartmental model, with elimination rate of k(0,3) for C118. The connection between C118P and C118 is by the uniflow of transformation rate of k(3,1) since the metabolism of C118P to C118 is irreversible(Figure S3).
Figure S3. The pharmacokinetic model of C118P and C118 in rat after i.v C118P. ex1: the injection dose of C118P, s1: concentration of C118 in central compartment. s2: concentration of C118 in central compartment, q1 and q3 represent the central compartment of C118P and C118, respectively.
The q2 and q4 represent the peripheral compartment of C118P and C118, respectively. k(0,3) represents the elimination rate of C118 from central compartment. k(3,1) represents the transformation rate of C118P to C118. k(2,1) and k(4,3) represent the distribution rate of C118P and C118 from central compartment to peripheral compartment. k(1,2) and k(3,4) represent the return rate of C118P and C118 from peripheral compartment to central compartment.
For prodrug pharmacokinetic prediction, the transformation of prodrug to the active drug should be studied in different system to get the right data. With the help of modeling, the transformation ratio of C118P to C118 was calculated by a tandem two-compartment model (SAAMII, University of Washington). In simulation study, the initial parameters are very important for accurate prediction.
The initial compartmental model parameters of rat and dog were first evaluated by Winnonlin using two-compartmental model at low dose, with intravenous for C118P and extra vessel for C118 since […]
(1 picture or pasted object on this page, not shown here)
C118 was transformed from C118P. The initial parameters used in the simulation were listed in Table S1. Using these parameters, the simulation of PK profiles of rat and dog are well fit to the data from in vivo at higher dose (Figure S4). The simulation of C118P and C118, the transformation rate of C118P to C118 is calculated and transformation ratio (k) is about 18.3671/h and12.588 1/h for rats and dogs, respectively.
Figure S4. The simulation of PK profile at 20 mg/kg in rat(A) and 6 mg/kg(B) in dog based on initial parameters calculated by Winnonlin. (s1 represent the simulated data for C118 and s2 represent the simulated data for C118P, plasma 1 represent the experimental data for C118 and plasma 2 represent the experimental data for C118P.) […]

[2] = Plasma protein binding by ultrafiltration; assay type: in vitro ADME; settings: human plasma, read-out: fu (fraction unbound)
Procedure: Both C118P and C118 were stable in the plasma with EDTA as anticoagulant. The non-specific binding to the ultrafilter membrane was negligible. The extent of plasma protein binding was reported as a fraction unbound (fu, %) value which was calculated using the formula fu = PF/TC × 100%, where TC is test compound (C118P or C118) concentration in sample before ultrafiltration, and PF is the test compound concentration in the ultrafiltrate (Table 1).
Plasma protein binding of C118P and C118 were determined by ultrafiltration at four concentrations (C118P: 400, 4000, 40,000, and 400,000 ng/mL, C118: 20, 200, 2000, and 20,000 ng/mL) in pooled plasma from Sprague-Dawley rats, beagle dogs, and humans. Stock solutions of C118P and C118 dissolved in methanol were diluted with blank plasma to achieve the test concentrations (the methanol volume is less than 10% of the plasma). The plasma was incubated for 1 h in a water bath at 37 °C. The total concentration of C118P and C118 of spiked plasma (TC) was analyzed by previously described methods. Ultrafiltration was performed with activated high speed centrifugal tubes (Millipore, Burlington, MA, USA). Plasma samples (0.4 mL) were added to the upper layer of the high speed centrifugal tubes, and then centrifuged at 12,000 g for 10 min. The concentration of unbound C118P and C118 in filtrate (PF) was similarly determined by the previously described methods. The percentage of free fraction (fu) of C118P and C118 was calculated as follows: fu = (PF/TC) × 100%.

[3] = Stability in plasma with EDTA as anticoagulant; assay type: in vitro ADME
[4] = PK in rats after i.v. C118P; assay type: in vivo, SD rats; settings: plasma; for AUC(0-inf) / half-life / clearance / concentration at 30 s: both sexes, rat; for AUC(0-inf) / half-life / clearance: iv; for concentration at 30 s: read-out: C2min (C30s for Rat)
Procedure: The SD rats were supplied by the medical animal experiment center of Chinese People’s Liberation Army Nanjing military region. Twenty-four rats (210–300 g) with half males and half females were divided randomly into four groups. C118P was dissolved in saline to achieve different concentrations for intravenous administration. After fasting overnight, the rats were administered with a single intravenous dose of 5, 10, 20, or 50 mg/kg C118P. Blood samples (approximately 200 μL) were collected in EDTA-coated tubes pre-dose (0), and 30s, 2, 5, 10, 20, 40 min, 1, 2, 4, 8, 12 and 24 h post dose. Plasma was prepared by centrifugation at 8000 rpm for 5 min, and the plasma samples were then prepared and determined by the method described above.
The area under the plasma-concentration-versus-time curve from 0 to infinite (AUC0-inf), the elimination half-life (t1/2), the systemic plasma clearance (CL) and the volume of distribution (V) were calculated by non-compartmental analysis with WinNonlin software v6.3 (Pharsight Corporation, St. Louis, MO 63144, USA) from the plasma concentration data of C118P and C118, respectively. The instantaneous concentrations after intravenous to rats (C30s) or dogs (C2min) were obtained directly from the observed data.

[5] = SD, in vivo, rats, i.v. C118P 5 mg/kg, n = 6
[6] = SD, in vivo, rats, i.v. C118P 20 mg/kg, n = 6
[7] = SD, in vivo, rats, i.v. C118P 50 mg/kg, n = 6
[8] = Sprague-Dawley, in vivo, rats, i.v. C118P 10 mg/kg, n = 6
[9] = SD, rats, i.v. C118P 5 mg/kg, n = 6
[10] = SD, rats, i.v. C118P 20 mg/kg, n = 6
[11] = SD, rats, i.v. C118P 50 mg/kg, n = 6
[12] = Sprague-Dawley, rats, i.v. C118P 10 mg/kg, n = 6

Compound: COc1cc(OC)cc(-c2nc[nH]c2-c2ccc(OC)c(OP(=O)([O-])[O-])c2)c1.[Na+].[Na+] [C118P]
K12 [1]: 1.844 h⁻¹
K21 [1]: 4.727 h⁻¹
V1 [1]: 0.05097 L/kg
K10 [1]: 12.558 h⁻¹
fraction unbound at 1 h, 400 ng/mL ([2]; C118P 400 ng/mL): 0.022 ± 0.001
fraction unbound at 1 h, 4000 ng/mL ([2]; C118P 4000 ng/mL): 0.027
fraction unbound at 1 h, 40000 ng/mL ([2]; C118P 40,000 ng/mL): 0.022 ± 0.001
fraction unbound at 1 h, 400000 ng/mL ([2]; C118P 400,000 ng/mL): 0.057 ± 0.004
stability in plasma [3]: stable
AUC(0-inf) [4, 5]: 5740 ± 766 ng·h/mL
half-life [4, 5]: 14.4 ± 3 min
clearance ([4]; SD, in vivo, rats, i.v. C118P 5 mg/kg, n = 6, read-out: CL (converted)): 14.7 mL/min/kg
clearance ([4]; SD, in vivo, rats, i.v. C118P 10 mg/kg, n = 6, read-out: CL (converted)): 16.4 mL/min/kg
AUC(0-inf) [4, 6]: 18700 ng·h/mL
half-life [4, 6]: 22.8 ± 6 min
clearance ([4]; SD, in vivo, rats, i.v. C118P 20 mg/kg, n = 6, read-out: CL (converted)): 18.5 mL/min/kg
AUC(0-inf) [4, 7]: 38900 ng·h/mL
half-life [4, 7]: 48 ± 34.2 min
clearance ([4]; SD, in vivo, rats, i.v. C118P 50 mg/kg, n = 6, read-out: CL (converted)): 22.3 mL/min/kg
concentration at 30 s [4, 5]: 75600 ng/mL
concentration at 30 s [4, 6]: 219000 ng/mL
concentration at 30 s [4, 7]: 373000 ng/mL
AUC(0-inf) [4, 8]: 10400 ng·h/mL
half-life [4, 8]: 12.6 ± 3 min
concentration at 30 s [4, 8]: 134000 ng/mL
V ([4]; rats, i.v. C118P 5 mg/kg, n = 6): 0.3025 ± 0.0611 L/kg
V ([4]; rats, i.v. C118P 10 mg/kg, n = 6): 0.2994 ± 0.0676 L/kg
V ([4]; rats, i.v. C118P 20 mg/kg, n = 6): 0.5826 ± 0.1142 L/kg
V ([4]; rats, i.v. C118P 50 mg/kg, n = 6): 1.5022 ± 1.0658 L/kg

K12 [1]: 1.3247 h⁻¹
K21 [1]: 0.2110 h⁻¹
V1 [1]: 0.2205 L/kg
K10 [1]: 3.1444 h⁻¹
fraction unbound at 1 h, 200 ng/mL ([2]; pooled plasma, C118 200 ng/mL): 0.028 ± 0.002
fraction unbound at 1 h, 2000 ng/mL ([2]; pooled plasma, C118 2000 ng/mL): 0.047 ± 0.002
fraction unbound at 1 h, 20000 ng/mL ([2]; pooled plasma, C118 20,000 ng/mL): 0.038 ± 0.002
stability in plasma [3]: stable
concentration at 30 s ([4]; SD, intravenous, rats, i.v. C118P 5 mg/kg, n = 6): 1580 ± 318 ng/mL
concentration at 30 s ([4]; SD, intravenous, rats, i.v. C118P 20 mg/kg, n = 6): 7720 ± 2010 ng/mL
concentration at 30 s ([4]; SD, intravenous, rats, i.v. C118P 50 mg/kg, n = 6): 20600 ng/mL
AUC(0-inf) [4, 9]: 741 ± 63.2 ng·h/mL
half-life [4, 9]: 31.2 ± 6 min
AUC(0-inf) [4, 10]: 3750 ± 592 ng·h/mL
half-life [4, 10]: 36 ± 3.6 min
AUC(0-inf) [4, 11]: 9720 ± 1300 ng·h/mL
half-life [4, 11]: 149 ± 75.6 min
clearance ([4]; Sprague-Dawley, in vivo, compared with extrapolated CLH, read-out: Observed CL): 62.9 mL/min/kg
concentration at 30 s ([4]; Sprague-Dawley, intravenous, rats, i.v. C118P 10 mg/kg, n = 6): 3720 ± 974 ng/mL
AUC(0-inf) [4, 12]: 1600 ± 193 ng·h/mL
half-life [4, 12]: 33 ± 7.8 min
Compound: COc1cc(OC)cc(-c2nc[nH]c2-c2ccc(OC)c(O)c2)c1 [C118]
